Reference: patent US20130189764A1, “SELECTIVE GROWTH MEDIA” (Oxide Limited, priority 2000, published 2013)

Experiments:
[1] = tested on: Staphylococcus aureus OCC 102; assay: growth on nutrient agar streak plates, pure culture (Example 5); type: cell-based; conditions: S. aureus OCC 102, nutrient agar, 0-10 mM tested
Description: Example 1 was repeated using Staphylococcus aureus OCC 102 as the test organism.

[2] = tested on: Klebsiella pneumoniae CMCC 3077; assay: growth on nutrient agar streak plates, pure culture (Example 4); type: cell-based; conditions: K. pneumoniae CMCC 3077, nutrient agar, 0-10 mM tested
Description: Example 1 was repeated using Klebsiella pneumoniae CMCC 3077 as the test organism. The results are shown in FIG. 5, and are qualitatively similar to those obtained in example 2.

K. pneumoniae CMCC 3077 = assay: growth on nutrient agar, mixed culture with S. aureus (Example 6); type: cell-based, Klebsiella pneumoniae; conditions: K. pneumoniae in mixed culture with S. aureus
Description: Example 1 was repeated, this time using a mixed culture of K. pneumoniae CMCC 3077 and S. aureus OCC 102. The results for growth in the presence of AEP or alaphosphin are shown in FIGS. 7 and 8 respectively: empty columns represent growth of S. aureus, the shaded columns represent growth of K. pneumoniae. […] Accordingly, there is a considerable alaphosphin concentration range over which S. aureus will readily grow whilst K. pneumoniae will be inhibited. Even if K. pneumoniae cells lyse due to the toxic effect of AEP released intracellularly, the AEP is not toxic for S. aureus at the concentrations involved.

[3] = tested on: Klebsiella pneumoniae CMCC3077; assay: total viable count in Nutrient Broth (Example 10); type: cell-based; conditions: 5 mM in Nutrient Broth, within a 4 hour period
Experimental: Growth curve data on the activity of alaphosphin towards Klebsiella spp. was generated. Particular attention was paid to measuring the kinetics of inhibition in broth culture. The media used in this work were Buffered Peptone Water, Nutrient Broth and Tryptone Soya Agar. The media were prepared according to the manufacturer's instructions.
The selective agents, AEP (Cat. No. 06655) and alaphosphin (Cat. No. 05260), were supplied by Fluka. They were dissolved in water at 0.5M concentration, filter-sterilised, and 100 μl added to 10 ml of Nutrient Broth to give a final concentration in the test medium of 5 mM of AEP or alaphosphin respectively.
Klebsiella pneumnoniae CMCC3077 was chosen, as it is a food isolate and work had been carried out previously on this organism using alaphosphin and AEP (see preceding examples). The organism was inoculated into Nutrient Broth and incubated overnight at 37° C. […] The test media were incubated at 37° C., and sampled at hourly intervals. The cultures were serially diluted in Buffered Peptone Water and inoculated onto Tryptone Soya Agar. These plates were incubated overnight at 37° C. and the total viable count made the next day.
Typical results are shown in FIG. 15 which is a graph of total viable count (log10 cfu/ml) against time (hours).

Compound: C[C@H](N)C(=O)N[C@@H](C)P(=O)(O)O [alaphosphin, L-alanyl-L-1-aminoethylphosphonic acid]
- concentration at which growth is completely inhibited [1]: 10 mM
- concentration at which growth is completely inhibited [2]: ≥ 2 mM
- concentration at which growth is completely inhibited (K. pneumoniae CMCC 3077): above 1 mM
- reduction in the viable count [3]: two to three log reduction
